Biological target: Tyrosine-protein kinase JAK1 (Homo sapiens, UniProt P23458)
Assay: In vitro JAK Kinase Assay: The catalytic domains of human JAK1 (a.a. 837-1142), Jak2 (a.a. 828-1132) and Jak3 (a.a. 781-1124) with an N-terminal His tag were expressed using baculovirus in insect cells and purified. The catalytic activity of JAK1, JAK2 or JAK3 was assayed by measuring the phosphorylation of a biotinylated peptide. The phosphorylated peptide was detected by homogenous time resolved fluorescence (HTRF). […] Reactions were carried out at room temperature for 1 hr and then stopped with 20 μL 45 mM EDTA, 300 nM SA-APC, 6 nM Eu-Py20 in assay buffer (Perkin Elmer, Boston, Mass.). Binding to the Europium labeled antibody took place for 40 minutes and HTRF signal was measured on a Fusion plate reader (Perkin Elmer, Boston, Mass.)

Chain of Tyrosine-protein kinase JAK1 (P23458 whole entry, the tested form may be a part): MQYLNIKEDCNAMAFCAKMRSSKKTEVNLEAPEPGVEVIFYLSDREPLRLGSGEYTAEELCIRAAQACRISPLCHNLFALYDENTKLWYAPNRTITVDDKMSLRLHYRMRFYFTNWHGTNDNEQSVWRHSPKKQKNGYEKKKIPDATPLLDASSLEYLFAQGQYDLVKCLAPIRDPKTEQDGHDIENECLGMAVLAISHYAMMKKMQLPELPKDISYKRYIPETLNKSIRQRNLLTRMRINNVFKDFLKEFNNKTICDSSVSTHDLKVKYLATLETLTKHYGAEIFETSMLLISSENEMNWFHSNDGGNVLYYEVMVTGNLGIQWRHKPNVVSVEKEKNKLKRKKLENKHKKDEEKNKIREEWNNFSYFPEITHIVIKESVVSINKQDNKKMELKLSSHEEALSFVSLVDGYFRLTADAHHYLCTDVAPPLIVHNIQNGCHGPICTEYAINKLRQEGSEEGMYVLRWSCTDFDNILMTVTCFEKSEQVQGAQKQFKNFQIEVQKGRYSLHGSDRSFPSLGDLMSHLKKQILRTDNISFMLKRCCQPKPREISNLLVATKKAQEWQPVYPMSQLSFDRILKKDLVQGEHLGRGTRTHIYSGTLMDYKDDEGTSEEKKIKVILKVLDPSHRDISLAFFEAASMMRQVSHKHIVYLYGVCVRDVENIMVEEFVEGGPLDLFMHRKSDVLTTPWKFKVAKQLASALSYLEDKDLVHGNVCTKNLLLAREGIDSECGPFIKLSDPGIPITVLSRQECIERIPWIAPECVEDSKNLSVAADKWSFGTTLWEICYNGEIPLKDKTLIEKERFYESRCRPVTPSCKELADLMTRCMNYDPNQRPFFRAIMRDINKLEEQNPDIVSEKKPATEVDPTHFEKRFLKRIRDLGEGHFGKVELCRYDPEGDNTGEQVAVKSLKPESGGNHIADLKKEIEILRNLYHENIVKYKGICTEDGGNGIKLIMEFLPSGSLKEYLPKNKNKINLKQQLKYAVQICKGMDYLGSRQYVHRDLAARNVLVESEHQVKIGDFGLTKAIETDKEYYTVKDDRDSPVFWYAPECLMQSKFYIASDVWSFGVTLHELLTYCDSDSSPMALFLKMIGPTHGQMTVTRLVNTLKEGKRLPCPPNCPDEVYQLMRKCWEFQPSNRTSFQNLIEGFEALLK

IC50: < 5 nM
SMILES: N#CCC1(n2cc(-c3ncnc4[nH]ccc34)cn2)CN(C2CCN(C(=O)OCC3CCCCC3)CC2)C1

Source: ChEMBL document CHEMBL5727777, “Piperidin-4-yl azetidine derivatives as JAK1 inhibitors” (2020)
